The values that follow are results of earlier work, collected in US9730952B2, “Methods for treating and preventing mucositis” (Indena S.p.A., priority 2006, dated 2017).

Molecules are shown by their SMILES.

Data set [1] has as its system numerous strains of Candida and other pathogenic fungi.

On to `COc1ccc2c(c[n+](C)c3c4cc5c(cc4ccc23)OCO5)c1OC` [chelerythrine], for which the “concentration inhibiting growth of Gram+ and Gram− bacteria” value in the data set with Gram+ and Gram− bacteria is given as “nanomolar concentrations”. Besides, the “concentration inhibiting growth of numerous strains of Candida and other pathogenic fungi” value in data set [1] is on record as “nanomolar concentrations”.
Regarding `CN1Cc2c(ccc3c2OCO3)[C@@H]2[C@H]1c1cc3c(cc1C[C@@H]2O)OCO3` [chelidonine], the “concentration inhibiting growth of Gram+ and Gram− bacteria” value with Gram+ and Gram− bacteria is listed as “nanomolar concentrations”. The “concentration inhibiting growth of numerous strains of Candida and other pathogenic fungi” value in data set [1] is listed as “nanomolar concentrations”.
